The IC50 is the point on the concentration scale where inhibition reaches its midpoint.

In assay [1] the target is HIS-tagged IDO1 protein (Homo sapiens (Human), UniProt P14902). The assay can be described thus: IDO1 Enzyme Assay. The class given is biochemical. The conditions noted are these: recombinant IDO1 40 nM, tryptophan substrate, fluorescence readout. The procedure: Biological Assays IDO1 Enzyme Assay
Compounds to be tested were serially diluted in ten 3-fold steps in DMSO starting from 10 mM DMSO stocks. Compound dilutions or DMSO alone were then dispensed from the dilution plate into a Greiner black 384-well assay plate (catalog #781086) using an Echo 555 acoustic liquid handler (Labcyte).
HIS-tagged IDO1 protein was recombinantly expressed in Escherichia coli using ZYP5052 autoinduction media supplemented with 500 μM delta aminolevulinic acid for 48 hours at 16 degrees Celsius. IDO1 protein was purified using Ni^2+-affinity resin and size exclusion chromatography. Purified protein was then diluted in assay buffer (50 mM Tris pH 7.0, 1% glycerol, 20 μM methylene blue, 0.05% Tween-20, 20 mM sodium ascorbate, 100 units/mL catalase to obtain a final IDO1 concentration of 40 nM. IDO1 solution […] or buffer alone […] was dispensed to wells of the assay plate using a BioRAPTR liquid dispenser (Beckman Coulter). Assay plates containing compound and IDO1 enzyme were incubated at room temperature for 30 minutes. Afterwards, 10 μL of 400 μM tryptophan in assay buffer were added to each well of the assay plate using a BioRAPTR liquid dispenser. Plates were incubated at room temperature for 60 minutes and reactions were quenched by addition of 10 μL of 0.5 M methyl isonipecotate in dimethyl sulfoxide. Plates were sealed and incubated at 37 degrees Celsius for 4 hours or 50 degrees Celsius for 2 hours. The plates are allowed to cool and then centrifuged for 1 minute at 1000×g. The resulting fluorescence was measured in an Envision plate reader (Perkin Elmer) with a 400/25 nm excitation filter and an 510/20 nm emission filter.
Potencies were calculated by linear least squares fit to the four parameter logistic IC50 equation.

For assay [2], the target named is IDO1 in Hela cells stimulated with IFNγ (Homo sapiens (Human), UniProt P14902). In words: IDO1 Cellular Assay in Hela Cells Stimulated with IFNγ. The class given is cell-based. The conditions noted are these: IFNγ 100 ng/mL, about 48 hours, fluorescence readout, read-out: IDO1 HELA Cell Assay, IC50. The procedure: IDO1 Cellular Assay in Hela Cells Stimulated with IFNγ
Sequence of IDO1 in Hela cells stimulated with IFNγ (P14902 whole entry): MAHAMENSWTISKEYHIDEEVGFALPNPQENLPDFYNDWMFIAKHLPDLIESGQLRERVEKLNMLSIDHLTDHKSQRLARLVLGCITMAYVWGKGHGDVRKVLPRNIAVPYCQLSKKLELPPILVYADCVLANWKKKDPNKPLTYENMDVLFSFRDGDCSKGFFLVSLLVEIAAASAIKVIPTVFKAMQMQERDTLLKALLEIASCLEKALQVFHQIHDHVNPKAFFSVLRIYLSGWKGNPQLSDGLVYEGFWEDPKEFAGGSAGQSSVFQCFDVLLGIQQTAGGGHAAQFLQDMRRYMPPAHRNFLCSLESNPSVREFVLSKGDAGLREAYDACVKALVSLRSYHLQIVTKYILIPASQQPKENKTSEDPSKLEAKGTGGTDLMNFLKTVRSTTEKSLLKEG
Hela cells were cultured in complete Hela culture medium (90% EMEM, 10% heat-inactivated fetal bovine serum) and expanded to about 1×10^9 cells. The cells were then collected and frozen down at 10×10^6 cells/vial in 1 mL frozen medium (90% complete Hela culture medium, 10% DMSO)
Compounds to be tested were serially diluted in ten 3-fold steps in DMSO starting from 10 mM DMSO stocks in Echo low volume plate(s). Compound dilutions or DMSO alone were then dispensed from the dilution plate(s) into Greiner black 384-well assay plate(s) (catalog #781086, 50 nL/well) using an Echo 550 acoustic liquid handler (Labcyte).
Frozen Hela cells were thawed and transferred into Hela assay medium (99% complete Hela culture medium, 1% Pen/Strep) with 20 mL medium/vial of cells. The cells were spun down at 250 g in a table top centrifuge for 5 min and suspended in same volume of Hela assay medium. The cells were then counted and adjusted to a density of 2×10^5 cells/ml in Hela assay medium. Sterile L-tryptophan were added to the cells with final concentration of 300 uM L-tryptophan. A small aliquot (2 mL/plate) of Hela cells were set aside and were not treated with IFNγ, to serve as the Max-E control. The rest of Hela cells were added with sterile IFNγ (Cat #285-IF, R & D systems) with a final concentration of 100 ng/mL.
Hela cells with and without IFNγ were dispensed to the respective wells of 384-well assay plates containing the compounds. The plates were incubated for about 48 hours at a 37° C., 5% CO2 incubator. Afterwards, 12 μL of 0.5 M methyl isonipecotate in dimethyl sulfoxide were added into each well and the plates were sealed and incubated at 37° C. without CO2 overnight. The plates were centrifuged for 1 min at 200×g. The resulting fluorescence was measured in a Spectramax plate reader (Molecular Devices) with a 400 nm excitation filter and a 510 nm emission filter.
The fluorescence intensity of each well was corrected for the background observed in wells with non-IFNγ-treated cells and was expressed as a fraction of the intensity observed in wells of IFNγ-treated cells and DMSO only. Potencies were calculated by linear least squares fit to the four parameter logistic IC50 equation.

Sequence of HIS-tagged IDO1 protein (P14902 whole entry): as above

With `O=C(NCCOc1nonc1/C(=N/O)N[C@H]1Cc2ccc(F)cc21)[C@@H](O)CO` [Example 26, (2S)-N-{2-[(4-{N-[(7S)-4-fluorobicyclo[4.2.0]octa-1,3,5-trien-7-yl]-N′-hydroxycarbamimidoyl}-1,2,5-oxadiazol-3-yl)oxy]ethyl}-2,3-dihydroxypropanamide], the 50% inhibitory concentration (IC50) in assay [1] is 214 nM; in assay [2] it was 284 nM.

For `O=C(CO)N1CC[C@@H](Oc2nonc2/C(=N/O)N[C@H]2Cc3ccc(F)cc32)C1` [Example 60, N-[(7S)-4-fluorobicyclo[4.2.0]octa-1,3,5-trien-7-yl]-N′-hydroxy-4-{[(3R)-1-(hydroxyacetyl)pyrrolidin-3-yl]oxy}-1,2,5-oxadiazole-3-carboximidamide], the values for the IC50 in assay [1] and in assay [2] were 1390 nM and 1440 nM, respectively.

As for `NC(=O)N1CC(Oc2nonc2/C(=N/O)N[C@H]2Cc3ccc(F)cc32)C1` [Example 63, (S,Z)-3-((4-(N-(4-fluorobicyclo[4.2.0]octa-1(6),2,4-trien-7-yl)-N′-hydroxycarbamimidoyl)-1,2,5-oxadiazol-3-yl)oxy)azetidine-1-carboxamide], the IC50 in assay [1] was determined as 20 nM; in assay [2] it was 36 nM.

For `O=C(CO)N1CC[C@H]1COc1nonc1/C(=N/O)N[C@H]1Cc2ccc(F)cc21` [Example 54, N-[(7S)-4-fluorobicyclo[4.2.0]octa-1,3,5-trien-7-yl]-N′-hydroxy-4-{[(2S)-1-(hydroxyacetyl)azetidin-2-yl]methoxy}-1,2,5-oxadiazole-3-carboximidamide], the IC50 in assay [1] was found to be 1490 nM; in assay [2] it was 1340 nM.

For the molecule `C[C@@H](O)CNC(=O)COc1nonc1/C(=N/O)N[C@H]1Cc2ccc(F)cc21` [Example 10, 2-[(4-{N-[(7S)-4-fluorobicyclo[4.2.0]octa-1,3,5-trien-7-yl]-N′-hydroxycarbamimidoyl}-1,2,5-oxadiazol-3-yl)oxy]-N-[(2R)-2-hydroxypropyl]acetamide], the IC50 came out at 100 nM in assay [1] and 335 nM in assay [2].

With `NC(=O)NCCCOc1nonc1/C(=N/O)N[C@H]1Cc2ccc(F)cc21` [Example 18, 4-[3-(carbamoylamino)propoxy]-N-[(7S)-4-fluorobicyclo[4.2.0]octa-1,3,5-trien-7-yl]-N′-hydroxy-1,2,5-oxadiazole-3-carboximidamide], the IC50 in assay [1] amounted to 74.7 nM; in assay [2] it was 301 nM.

For `NC(=O)N(CCO)CCOc1nonc1/C(=N/O)NC1Cc2ccc(F)cc21` (stereo not drawn) [Example 15, 4-{2-[carbamoyl(2-hydroxyethyl)amino]ethoxy}-N-(4-fluorobicyclo[4.2.0]octa-1,3,5-trien-7-yl)-N′-hydroxy-1,2,5-oxadiazole-3-carboximidamide], the results for the IC50 in assay [1] and in assay [2] were 479 nM and 685 nM, respectively.

Regarding `O=C(COc1nonc1/C(=N/O)N[C@H]1Cc2ccc(F)cc21)NC[C@@H](O)CO` [Example 16, N-[(2R)-2,3-dihydroxypropyl]-2-[(4-{N-[(7S)-4-fluorobicyclo[4.2.0]octa-1,3,5-trien-7-yl]-N′-hydroxycarbamimidoyl}-1,2,5-oxadiazol-3-yl)oxy]acetamide], the IC50 in assay [1] is 447 nM; in assay [2], 509 nM.

For the molecule `O=C(COc1nonc1/C(=N/O)N[C@H]1Cc2ccc(F)cc21)N1CC[C@@H](O)C1` [Example 44, N-[(7S)-4-fluorobicyclo[4.2.0]octa-1,3,5-trien-7-yl]-N′-hydroxy-4-{2-[(3R)-3-hydroxypyrrolidin-1-yl]-2-oxoethoxy}-1,2,5-oxadiazole-3-carboximidamide], the results for the IC50 in assay [1] and in assay [2] were 866 nM and 1310 nM, respectively.

Turning to `CC(=O)N[C@H]1C[C@H](Oc2nonc2/C(=N/O)N[C@H]2Cc3ccc(F)cc32)C1` [Example 37, N-{trans-3-[(4-{N-[(7S)-4-fluorobicyclo[4.2.0]octa-1,3,5-trien-7-yl]-N′-hydroxycarbamimidoyl}-1,2,5-oxadiazol-3-yl)oxy]cyclobutyl}acetamide], the IC50 worked out at 83.4 nM in assay [1] and 91.3 nM in assay [2].

With `O/N=C(\N[C@H]1Cc2ccc(F)cc21)c1nonc1OCCn1cnnc1` [Example 28, N-[(7S)-4-fluorobicyclo[4.2.0]octa-1,3,5-trien-7-yl]-N′-hydroxy-4-[2-(4H-1,2,4-triazol-4-yl)ethoxy]-1,2,5-oxadiazole-3-carboximidamide], the IC50 stood at 396 nM in assay [1] and 561 nM in assay [2].

Regarding `C[C@H](CO)NC(=O)COc1nonc1/C(=N/O)N[C@H]1Cc2ccc(F)cc21` [Example 8, 2-[(4-{N-[(7S)-4-fluorobicyclo[4.2.0]octa-1,3,5-trien-7-yl]-N′-hydroxycarbamimidoyl}-1,2,5-oxadiazol-3-yl)oxy]-N-[(2R)-1-hydroxypropan-2-yl]acetamide], the IC50 in assay [1] is 110 nM; in assay [2], 416 nM.

Take `O=C(COc1nonc1/C(=N/O)N[C@H]1CCc2ccc(F)cc21)NCCO` [Example 13, 2-[(4-{N-[(1S)-6-fluoro-2,3-dihydro-1H-inden-1-yl]-N′-hydroxycarbamimidoyl}-1,2,5-oxadiazol-3-yl)oxy]-N-(2-hydroxyethyl)acetamide]: the IC50 in assay [1] came to 483 nM; in assay [2] it was 774 nM.

Consider `O=C(N[C@H]1C[C@@H](Oc2nonc2/C(=N/O)N[C@H]2Cc3ccc(F)cc32)C1)C1(O)CC1` [Example 65, N-((1R,3s)-3-((4-((Z)-N-((S)-4-fluorobicyclo[4.2.0]octa-1(6),2,4-trien-7-yl)-N′-hydroxycarbamimidoyl)-1,2,5-oxadiazol-3-yl)oxy)cyclobutyl)-1-hydroxycyclopropanecarboxamide], for which the IC50 was 167 nM in assay [1] and 280 nM in assay [2].

As to `O=C(NCCOc1nonc1/C(=N/O)N[C@H]1Cc2ccc(F)cc21)c1nc[nH]n1` [Example 22, N-{2-[(4-{N-[(7S)-4-fluorobicyclo[4.2.0]octa-1,3,5-trien-7-yl]-N′-hydroxycarbamimidoyl}-1,2,5-oxadiazol-3-yl)oxy]ethyl}-1H-1,2,4-triazole-3-carboxamide], the IC50 in assay [1] worked out at 264 nM; in assay [2] it was 308 nM.

Consider `NS(=O)(=O)N1CC[C@@H](Oc2nonc2/C(=N/O)N[C@H]2Cc3ccc(F)cc32)C1` [Example 31, N-[(7S)-4-fluorobicyclo[4.2.0]octa-1,3,5-trien-7-yl]-N′-hydroxy-4-{[(3R)-1-sulfamoylpyrrolidin-3-yl]oxy}-1,2,5-oxadiazole-3-carboximidamide], for which the IC50 in assay [1] was 747 nM; in assay [2], 750 nM.

In the case of `CC(C)(COc1nonc1/C(=N/O)N[C@H]1Cc2ccc(F)cc21)NC(=O)CO` [Example 35, N-{1-[(4-{N-[(7S)-4-fluorobicyclo[4.2.0]octa-1,3,5-trien-7-yl]-N′-hydroxycarbamimidoyl}-1,2,5-oxadiazol-3-yl)oxy]-2-methylpropan-2-yl}-2-hydroxyacetamide], the concentration for half-maximal inhibition (IC50) in assay [1] was found to be 2150 nM; in assay [2], 2030 nM.

`O=C(COc1nonc1/C(=N/O)N[C@H]1Cc2ccc(F)cc21)N1CC[C@H](O)C1` [Example 45, N-[(7S)-4-fluorobicyclo[4.2.0]octa-1,3,5-trien-7-yl]-N′-hydroxy-4-{2-[(3S)-3-hydroxypyrrolidin-1-yl]-2-oxoethoxy}-1,2,5-oxadiazole-3-carboximidamide]: the results for the IC50 in assay [1] and in assay [2] were 990 nM and 1280 nM, respectively.
